This is an account of results in ChEMBL document CHEMBL2434830, “Inhibitory constituents from the aerial parts of Polygala tenuifolia on LPS-induced NO production in BV2 microglia cells” (Bioorg Med Chem Lett, 2013).

Data set [1] relates to BV-2. In words: Cytotoxicity against mouse BV2 cells assessed as cell viability at 50 uM by MTT assay. Conditions: bv-2, 50 µM. In kind it is cell-based.
Data set [2] deals with BV-2. In words: Antiinflammatory activity in mouse BV2 cells assessed as inhibition of LPS-induced NO production after 24 hrs by Griess assay. The conditions noted are these: BV-2, 24 h. It is filed as functional, cell-based. On the technique in general: Griess reagent forms a coloured azo dye with nitrite.

The structures appear in SMILES notation. Where only a bound is given, the exact number is not on record here.

Take `O=c1c2ccc(O)cc2oc2cccc(O)c12`: in the data set on BV-2 [1], the Activity result is “Toxic”.

With `COc1cc2oc3cc(O)c(O)cc3c(=O)c2c(O)c1OC`, in the data set with BV-2 [1], the Activity entry is given as “Toxic”.

The term IC50 denotes the concentration that inhibits the measured activity by half. Regarding `O=c1c2cc(O)ccc2oc2cc3c(c(O)c12)OCO3`, the IC50 in the data set with BV-2 [2] turned out to be 20.6 µM.

Regarding `COc1ccc2c(c1)c(CC(=O)O)c(C)n2C(=O)c1ccc(Cl)cc1` [INDOMETHACIN], in the data set with BV-2 [2], the IC50 turned out to be 7.1 µM.

As to `COc1cc2c(=O)c3c(O)cc(O)cc3oc2cc1O` [ALLOATHYRIOL], the IC50 in the data set with BV-2 [2] was more than 100 µM.

`COc1ccc(O)c2c(=O)c3cc(O)ccc3oc12`: the IC50 in the data set on BV-2 [2] came to 7.4 µM.

Regarding `O=c1c2cc(O)c(O)cc2oc2cc(O)c([C@@H]3O[C@H](CO)[C@@H](O)[C@H](O)[C@H]3O)c(O)c12` [MANGIFERIN], the IC50 in the data set with BV-2 [2] came out at 38.5 µM.

Turning to `O=c1c2cc(O)ccc2oc2c(O[C@@H]3O[C@H](CO)[C@@H](O)[C@H](O)[C@H]3O)ccc(O)c12`, the IC50 with BV-2 [2] was 38.4 µM.

Regarding `COc1c(O)cc2oc3ccc(O)cc3c(=O)c2c1O`, in the data set with BV-2 [1], the Activity result is “Toxic”.
